Reference: patent publication US9902725B2, “Heterocyclic derivatives as RORgamma modulators” (GENFIT, priority 2014, dated 2018)

What was measured:
human RORγt = molecular target: T1, human RORγt (Homo sapiens, UniProt P51449); assay: IL-17 secretion from EL4 murine lymphoma overexpressing human RORγt; format: cell-based; set-up: expressed in transfected cells; host or cells: EL-4 murine lymphoma; settings: IL-17 secretion inhibition, PMA and ionomycin stimulation, 24 h
T1 sequence (P51449 1-497 isoform P51449-2): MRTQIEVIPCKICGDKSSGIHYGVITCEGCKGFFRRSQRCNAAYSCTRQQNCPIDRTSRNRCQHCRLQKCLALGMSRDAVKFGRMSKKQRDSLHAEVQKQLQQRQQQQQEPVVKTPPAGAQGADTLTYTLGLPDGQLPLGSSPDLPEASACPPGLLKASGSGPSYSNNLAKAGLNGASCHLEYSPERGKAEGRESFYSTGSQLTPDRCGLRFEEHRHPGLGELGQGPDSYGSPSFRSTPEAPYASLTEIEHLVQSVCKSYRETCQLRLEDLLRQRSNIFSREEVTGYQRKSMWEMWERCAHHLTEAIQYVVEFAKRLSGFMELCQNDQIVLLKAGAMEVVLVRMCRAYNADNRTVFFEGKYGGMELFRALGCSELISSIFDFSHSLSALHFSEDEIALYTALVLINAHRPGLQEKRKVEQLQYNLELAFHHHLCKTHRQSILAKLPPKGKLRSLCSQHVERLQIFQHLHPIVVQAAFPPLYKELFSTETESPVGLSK
Experimental: Murine EL-4 lymphoma cell line overexpressing human RORγt was used in this functional assay to assess compound ability to inhibit IL-17 cytokine secretion.
EL-4 cells are maintained in a standard culture medium RPMI supplemented with 10% fetal calf serum, 1% sodium pyruvate, 1% essential amino acids and 1% antibiotics at 37° C. in a humidified atmosphere of 5% CO2 and 95% air. Culture medium was changed every 2 days. EL4 cells were transfected with a plasmid encoding hRORγt (sequence identical to published sequence NM 001001523). […] Briefly, 1 μg of DNA/1 million cells was served to transfect EL-4 cells. Cell/DNA suspension was transferred into certified cuvette and the electroporation of RORγt plasmid was carried out using appropriate Nucleofector® program.
Cells were seeded in 96 well plates at a density of 150000 cells/well then treated with compounds of this invention at indicated concentrations and incubated for 24 hours at 37° C. in a humidified atmosphere of 5% CO2 and 95% air. EL-4 cells were pretreated with test compounds (RORγ modulators) and stimulated with PMA (10 ng/mL) and ionomycin (1 μM final concentration) in the presence of test compound concentrations for additional 24 h at 37° C. in a humidified atmosphere of 5% CO2 and 95% air. Subsequently, supernatants were collected (after centrifugation at 300 g for 10 minutes) to determine the concentrations of IL-17 by HTRF (CisBio, France) or ELISA (R&D Systems Europe) according to the manufacturer's protocols.

[1] = molecular target: T2, RORγt ligand-binding domain (RORγt-LBD) (Homo sapiens, UniProt P51449); assay: Time-resolved FRET (TR-FRET) RORγt coactivator assay; format: biochemical; settings: GST-RORγ-LBD, biotinylated RIP140 peptide, coactivator displacement
T2 construct: 20 nM recombinantly expressed RORγ-LBD fused to GST
T2 sequence (P51449 269-508 limits assumed): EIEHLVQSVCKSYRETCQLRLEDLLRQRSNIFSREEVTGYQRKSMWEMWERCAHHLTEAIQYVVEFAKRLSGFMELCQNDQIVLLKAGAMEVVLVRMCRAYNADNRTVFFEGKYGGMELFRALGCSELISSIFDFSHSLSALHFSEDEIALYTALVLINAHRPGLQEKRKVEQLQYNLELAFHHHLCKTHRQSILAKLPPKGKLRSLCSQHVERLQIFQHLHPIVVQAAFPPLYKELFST

COc1ccc(C(NC(=O)Cc2ccc3[nH]cc(CCC(=O)OC(C)(C)C)c3c2)c2ccccc2)c(C)c1 (centres unmarked) [Cpd. 82, tert-butyl 3-[5-({[(4-methoxy-2-methylphenyl)(phenyl)methyl]carbamoyl}methyl)-1H-indol-3-yl]propanoate]
IC50 (human RORγt): 1 to 10 µM
IC50 [1]: < 1 µM

Cc1ccc(C(NC(=O)Cc2ccc3[nH]cc(CC(=O)N(C)C)c3c2)c2ccccc2)c(N2CCOCC2)c1 (centres unmarked) [compound 112, N,N-dimethyl-2-{5-[({[4-methyl-2-(morpholin-4-yl)phenyl](phenyl)methyl}carbamoyl)methyl]-1H-indol-3-yl}acetamide]
IC50 (human RORγt): 1 to 10 µM
IC50 [1]: < 1 µM

Cc1ccc(N2CCCCC2)c(C(NC(=O)Cc2ccc3[nH]cc(CCC(=O)O)c3c2)c2ccccc2)c1 (centres unmarked) [compound 114, 3-{5-[({[5-methyl-2-(piperidin-1-yl)phenyl](phenyl)methyl}carbamoyl)methyl]-1H-indol-3-yl}propanoic acid]
IC50 (human RORγt): 1 to 10 µM
IC50 [1]: < 1 µM

CCOC(=O)CCCc1c[nH]c2ccc(CC(=O)NC(c3ccccc3)c3ccccc3N3CCCCC3)cc12 (centres unmarked) [Cpd. 211, ethyl 4-{5-[({phenyl[2-(piperidin-1-yl)phenyl]methyl}carbamoyl)methyl]-1H-indol-3-yl}butanoate]
IC50 (human RORγt): 1 to 10 µM
IC50 [1]: < 1 µM

CC(C)(C)OC(=O)CCc1c[nH]c2ccc(CC(=O)NC(c3ccccc3)c3ccc(Br)cc3N3CCCC3)cc12 (centres unmarked) [Cpd. 49, tert-butyl 3-{5-[({[4-bromo-2-(pyrrolidin-1-yl)phenyl](phenyl)methyl}carbamoyl)methyl]-1H-indol-3-yl}propanoate]
IC50 (human RORγt): 1 to 10 µM
IC50 [1]: 1 to 10 µM

Cc1ccc(C(NC(=O)Cc2ccc3[nH]cc(CC(=O)O)c3c2)c2ccccc2)c(N2CCCC2)c1 (centres unmarked) [compound 65, 2-{5-[({[4-methyl-2-(pyrrolidin-1-yl)phenyl](phenyl)methyl}carbamoyl)methyl]-1H-indol-3-yl}acetic acid]
IC50 (human RORγt): 1 to 10 µM
IC50 [1]: < 1 µM

Cc1ccc(C(NC(=O)Cc2ccc3[nH]cc(CCC(=O)O)c3c2)c2ccccc2N2CCCCC2)o1 (centres unmarked) [compound 148, 3-[5-({[(5-methylfuran-2-yl)[2-(piperidin-1-yl)phenyl]methyl]carbamoyl}methyl)-1H-indol-3-yl]propanoic acid]
IC50 (human RORγt): 1 to 10 µM
IC50 [1]: < 1 µM

CC(C)CC(NC(=O)Cc1ccc2[nH]cc(CCC(=O)O)c2c1)c1cccc2ccccc12 (centres unmarked) [compound 105, 3-[5-({[3-methyl-1-(naphthalen-1-yl)butyl]carbamoyl}methyl)-1H-indol-3-yl]propanoic acid]
IC50 (human RORγt): 1 to 10 µM
IC50 [1]: < 1 µM

Cc1ccc(C(C(=O)NCc2ccc3[nH]cc(CCC(=O)O)c3c2)c2ccccc2)c(N2CCCCC2)c1 (centres unmarked) [compound 209, 3-[5-({2-[4-methyl-2-(piperidin-1-yl)phenyl]-2-phenylacetamido}methyl)-1H-indol-3-yl]propanoic acid]
IC50 (human RORγt): 1 to 10 µM
IC50 [1]: < 1 µM

COc1ccc(N2CCCCC2)c(C(NC(=O)Cc2ccc3[nH]cc(CCC(=O)O)c3c2)c2ccccc2)c1 (centres unmarked) [compound 136, 3-{5-[({[5-methoxy-2-(piperidin-1-yl)phenyl](phenyl)methyl}carbamoyl)methyl]-1H-indol-3-yl}propanoic acid]
IC50 (human RORγt): 1 to 10 µM
IC50 [1]: < 1 µM

Cc1ccc(C(NC(=O)Cc2ccc3[nH]cc(CCC(=O)O)c3c2)c2ccccc2N2CCCCC2)cc1 (centres unmarked) [compound 188, 3-[5-({[(4-methylphenyl)[2-(piperidin-1-yl)phenyl]methyl]carbamoyl}methyl)-1H-indol-3-yl]propanoic acid]
IC50 (human RORγt): 10 to 30 µM
IC50 [1]: < 1 µM

Cc1cccc(C(NC(=O)Cc2ccc3[nH]cc(CCC(=O)O)c3c2)c2ccccc2)c1N1CCCCC1 (centres unmarked) [compound 202, 3-{5-[({[3-methyl-2-(piperidin-1-yl)phenyl](phenyl)methyl}carbamoyl)methyl]-1H-indol-3-yl}propanoic acid]
IC50 (human RORγt): 1 to 10 µM
IC50 [1]: < 1 µM

Cc1ccc(C(NC(=O)Cc2ccc3[nH]cc(CCC(=O)O)c3c2)c2nccs2)c(N2CCCCC2)c1 (centres unmarked) [compound 140, 3-{5-[({[4-methyl-2-(piperidin-1-yl)phenyl](1,3-thiazol-2-yl)methyl}carbamoyl)methyl]-1H-indol-3-yl}propanoic acid]
IC50 (human RORγt): 1 to 10 µM
IC50 [1]: < 1 µM

Cc1cc(Br)ccc1C(NC(=O)Cc1ccc2[nH]cc(CCC(=O)OC(C)(C)C)c2c1)c1ccccc1 (centres unmarked) [Cpd. 43, tert-butyl 3-[5-({[(4-bromo-2-methylphenyl)(phenyl)methyl]carbamoyl}methyl)-1H-indol-3-yl]propanoate]
IC50 (human RORγt): 10 to 30 µM
IC50 [1]: 1 to 10 µM

O=C(O)CCc1c[nH]c2ccc(CC(=O)NC(c3ccccc3)c3cc(Br)ccc3N3CCCC3)cc12 (centres unmarked) [compound 117, 3-{5-[({[5-bromo-2-(pyrrolidin-1-yl)phenyl](phenyl)methyl}carbamoyl)methyl]-1H-indol-3-yl}propanoic acid]
IC50 (human RORγt): 10 to 30 µM
IC50 [1]: < 1 µM

O=C(O)CCc1c[nH]c2ccc(CC(=O)NC(c3ccccc3)c3ccc(Cl)cc3N3CCCC3)cc12 (centres unmarked) [compound 91, 3-{5-[({[4-chloro-2-(pyrrolidin-1-yl)phenyl](phenyl)methyl}carbamoyl)methyl]-1H-indol-3-yl}propanoic acid]
IC50 (human RORγt): 1 to 10 µM
IC50 [1]: < 1 µM

O=C(O)CCc1c[nH]c2ccc(CC(=O)NC3(c4ccccc4N4CCCCC4)CCCCC3)cc12 [compound 144, 3-{5-[({1-[2-(piperidin-1-yl)phenyl]cyclohexyl}carbamoyl)methyl]-1H-indol-3-yl}propanoic acid]
IC50 (human RORγt): 1 to 10 µM
IC50 [1]: < 1 µM

Cc1ccc(C(NC(=O)Cc2ccc3[nH]cc(CCC(=O)OC(C)(C)C)c3c2)c2ccccc2)c(OC(C)C)c1 (centres unmarked) [Cpd. 145, tert-butyl 3-{5-[({[4-methyl-2-(propan-2-yloxy)phenyl](phenyl)methyl}carbamoyl)methyl]-1H-indol-3-yl}propanoate]
IC50 (human RORγt): 1 to 10 µM
IC50 [1]: < 1 µM

O=C(O)CCCCc1c[nH]c2ccc(CC(=O)NC(c3ccccc3)c3ccccc3N3CCCCC3)cc12 (centres unmarked) [compound 217, 5-{5-[({phenyl[2-(piperidin-1-yl)phenyl]methyl}carbamoyl)methyl]-1H-indol-3-yl}pentanoic acid]
IC50 (human RORγt): 1 to 10 µM
IC50 [1]: < 1 µM

O=C(O)CCc1c[nH]c2ccc(CC(=O)NC3(c4ccccc4N4CCCC4)CCCC3)cc12 [compound 130, 3-{5-[({1-[2-(pyrrolidin-1-yl)phenyl]cyclopentyl}carbamoyl)methyl]-1H-indol-3-yl}propanoic acid]
IC50 [1]: < 1 µM

Cc1ccc(C(NC(=O)Cc2ccc3[nH]cc(CCC(=O)O)c3c2)c2ccccc2)c(C)c1 (centres unmarked) [Cpd. 11, 3-[5-({[(2,4-dimethylphenyl)(phenyl)methyl]carbamoyl}methyl)-1H-indol-3-yl]propanoic acid]
IC50 [1]: < 1 µM

COc1ccc(C(NC(=O)Cc2ccc3[nH]cc(CCC(=O)O)c3c2)c2ccccc2)c(C)c1 (centres unmarked) [compound 83, 3-[5-({[(4-methoxy-2-methylphenyl)(phenyl)methyl]carbamoyl}methyl)-1H-indol-3-yl]propanoic acid]
IC50 [1]: < 1 µM

CC(C)CC(NC(=O)Nc1cnc2[nH]cc(CCC(=O)O)c2c1)c1ccccc1N1CCCCC1 (centres unmarked) [compound 178, 3-{5-[({3-methyl-1-[2-(piperidin-1-yl)phenyl]butyl}carbamoyl)amino]-1H-pyrrolo[2,3-b]pyridin-3-yl}propanoic acid]
IC50 [1]: 10 to 30 µM

Cc1ncc(C(NC(=O)Cc2ccc3[nH]cc(CCC(=O)O)c3c2)c2ccccc2N2CCCCC2)s1 (centres unmarked) [compound 156, 3-[5-({[(2-methyl-1,3-thiazol-5-yl)[2-(piperidin-1-yl)phenyl]methyl]carbamoyl}methyl)-1H-indol-3-yl]propanoic acid]
IC50 [1]: 1 to 10 µM

O=C(O)CCc1c[nH]c2ccc(CC(=O)NC(CC3CCOCC3)c3ccccc3N3CCCCC3)cc12 (centres unmarked) [compound 190, 3-[5-({[2-(oxan-4-yl)-1-[2-(piperidin-1-yl)phenyl]ethyl]carbamoyl}methyl)-1H-indol-3-yl]propanoic acid]
IC50 [1]: < 1 µM
